Drawing on article PMC10598672, “A hybrid energy-based and AI-based screening approach for the discovery of novel inhibitors of JAK3” (Frontiers in Medicine, 2023), this text covers inhibition and IC50 for three compounds.

Each structure is given as a SMILES string.

Assay [1] has as its target T1, JAK3 (Homo sapiens, UniProt P52333).
T1 sequence (P52333 1-1124): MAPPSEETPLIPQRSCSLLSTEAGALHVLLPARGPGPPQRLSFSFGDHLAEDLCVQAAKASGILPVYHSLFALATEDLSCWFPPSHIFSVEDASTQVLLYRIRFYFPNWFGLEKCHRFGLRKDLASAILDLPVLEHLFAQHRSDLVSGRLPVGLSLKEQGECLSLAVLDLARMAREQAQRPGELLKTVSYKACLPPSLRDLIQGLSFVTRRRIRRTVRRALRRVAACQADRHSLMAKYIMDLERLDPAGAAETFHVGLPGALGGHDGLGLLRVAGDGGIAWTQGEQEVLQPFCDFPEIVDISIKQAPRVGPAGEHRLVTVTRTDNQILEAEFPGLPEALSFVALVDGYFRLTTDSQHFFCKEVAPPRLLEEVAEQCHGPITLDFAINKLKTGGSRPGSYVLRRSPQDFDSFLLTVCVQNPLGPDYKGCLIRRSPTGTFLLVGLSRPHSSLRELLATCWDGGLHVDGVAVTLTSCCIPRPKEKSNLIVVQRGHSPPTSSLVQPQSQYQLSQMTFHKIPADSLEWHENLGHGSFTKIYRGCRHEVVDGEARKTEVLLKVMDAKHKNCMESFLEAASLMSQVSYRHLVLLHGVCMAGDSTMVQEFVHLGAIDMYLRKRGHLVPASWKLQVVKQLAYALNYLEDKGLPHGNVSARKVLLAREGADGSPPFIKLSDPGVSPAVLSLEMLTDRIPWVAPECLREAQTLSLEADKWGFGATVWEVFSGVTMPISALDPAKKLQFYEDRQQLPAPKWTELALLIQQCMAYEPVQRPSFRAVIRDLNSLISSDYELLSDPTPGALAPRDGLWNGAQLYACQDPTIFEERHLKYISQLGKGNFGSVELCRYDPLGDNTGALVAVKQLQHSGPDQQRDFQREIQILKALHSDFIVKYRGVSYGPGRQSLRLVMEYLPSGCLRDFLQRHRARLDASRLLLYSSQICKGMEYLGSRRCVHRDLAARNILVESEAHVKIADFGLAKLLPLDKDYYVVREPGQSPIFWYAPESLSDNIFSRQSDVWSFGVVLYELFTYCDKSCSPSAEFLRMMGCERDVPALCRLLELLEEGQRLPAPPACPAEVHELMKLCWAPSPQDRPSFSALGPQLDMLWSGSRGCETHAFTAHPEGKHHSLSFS
The assay is described as follows: HTRF kinase assay, inhibition rate at […]. It counts as biochemical. Conditions: read-out: Inhibit rate (%).

Assay [2] deals with T1, JAK3. Briefly: HTRF kinase assay (Cryptate/XL665), dose-response IC50. It is filed as biochemical.

For the compound `CN1CCC(Nc2nc(Nc3ccc(Oc4ccccc4)cc3)c3c(=O)[nH]cc(Br)c3n2)CC1` [compound 4], the inhibition at 25 µM on JAK3 [1] was determined as 93.37 ± 0.01%. On to `CN1CCN(c2ccc(Nc3ncc4cc(C#N)c(=O)n(C5CCCC5)c4n3)cc2)CC1` [compound 5], for which, on JAK3 [1], the inhibition at 25 µM worked out at 75.2 ± 0.85%.

For the compound `CC(=O)Nc1cc(Oc2ccc3c(C(=O)Nc4ccc(CN5CCN(C)CC5)c(C(F)(F)F)c4)cccc3c2)ncn1` [compound 8], it took 4.11 µM to reach half-maximal inhibition at JAK3 [2] (IC50).
